19 compounds from patent US8486939B2, “Pyrimidinyl and 1,3,5-triazinyl benzimidazoles and their use in cancer therapy” (Pathway Therapeutics Inc., priority 2009, dated 2013) can be followed below.

The test system of one data set is NZB5. The experiment in a line: Cellular growth inhibition (3H-thymidine incorporation). It counts as cell-based. The conditions noted are these: Homo sapiens, five days incubation, 3H-thymidine over the last 6 hrs, read-out: Cell IC50* NZB5. The protocol: (§1) The compounds were evaluated against two early passage human cell lines NZB5 and NZOV9 (Marshall et al., Oncol. Res. 2004, 14, 297). The cells were grown in ITS medium (α-modified minimal essential medium supplemented insulin, transferrin, selenite, and 5% fetal bovine serum) and grown on 96-well tissue culture plates under an atmosphere of 5% O2, 5% CO2, and 90% N2. Individual wells contained 500-1,000 cells (depending on the growth rate) in a volume of 150 μL. Compounds were added at 10-fold concentration steps to a maximum of 20 μM and plates were incubated for five days, with ^3H-thymidine being added over the last 6 hrs. Cells were harvested and incorporated radioactivity measured. Duplicate samples were analyzed for each compound dose with multiple control samples. Data were fitted by a least-squares method to an exponential of the form y=y0+ae^−bx, where y is the radioactivity (corrected for background and normalized to 100% of the control), x is the […], and y0, a, and b are variables, and the IC50 value defined as the compound concentration reducing ^3H-thymidine levels by 50%.
(Uptake of a labelled nucleoside into DNA is a usual measure of proliferation.)

The next data set has as its system NZOV9. The data set is described as above. The data set is classed as cell-based. As to conditions: Homo sapiens, five days incubation, 3H-thymidine over the last 6 hrs, read-out: Cell IC50* NZOV9. The protocol: as §1
The target in a further data set is p110δ/p85 (Homo sapiens, UniProt O00329). The experiment in a line: Inhibition of isolated enzyme (lipid kinase assay, [γ33P]ATP, TLC). As to conditions: recombinant enzyme, 100 μM ATP, 1 hr room temperature, average of two experiments. The data set is classed as biochemical. The procedure:
(§2) Compounds were evaluated for their ability to inhibit Class I PI 3-kinase enzymes p110δ/p85, p110α/p85, and p110β/p85. Reaction mixtures comprising 0.1 μg of a recombinant enzyme, 10 μg of L-α-phosphatidylinositol, and 2× Lipid Kinase Buffer (40 mM Tris-HCl, pH 7.4, 200 mM NaCl, 1 mM EDTA), which contains either DMSO only as a control or the test compound in DMSO (the final DMSO concentration is 1%), were activated by the addition of an ATP mix (5 mM MgCl2, 100 μM ATP, and 0.1 μL [γ^33P]ATP). Reactions were incubated at room temperature for 1 hr, and then stopped by the addition of 1M HCl. The lipids were then extracted using a two step procedure. Firstly, 200 μL of chloroform/methanol (1:1) was added, the biphasic reactions mixed and centrifuged briefly, and the inorganic phase was removed and discarded. Following this, 80 μL of methanol:HCl (1:1) was added and the same procedure followed. The organic phase (70 μL) was then transferred to a clean 1.6 mL tube and the reactions were dried using a Speedvac, with no heating, for […]. The reactions were spotted onto TLC plates (Merck Ltd) and developed for 1 hr in propanol-1:2 M acetic acid (13:7). The TLC plates were then dried at room temperature and quantified using a phosphorimager (StormImager, Amersham). Nine compound concentrations were used for each test compound to determine its IC50 value. Each experiment was performed twice and the average IC50 value is used herein.

In a further data set the target is p110β/p85 (Homo sapiens, UniProt P42338). Described as above. The data set is classed as biochemical. The conditions noted are these: recombinant enzyme, 100 μM ATP, 1 hr room temperature, average of two experiments. The protocol:
as §2

For the next data set, the target named is p110α/p85 (Homo sapiens, UniProt P42336). Described as above. It counts as biochemical. The conditions noted are these: recombinant enzyme, 100 μM ATP, 1 hr room temperature, average of two experiments. The protocol: as §2
Sequence of p110α/p85 (P42336 whole entry): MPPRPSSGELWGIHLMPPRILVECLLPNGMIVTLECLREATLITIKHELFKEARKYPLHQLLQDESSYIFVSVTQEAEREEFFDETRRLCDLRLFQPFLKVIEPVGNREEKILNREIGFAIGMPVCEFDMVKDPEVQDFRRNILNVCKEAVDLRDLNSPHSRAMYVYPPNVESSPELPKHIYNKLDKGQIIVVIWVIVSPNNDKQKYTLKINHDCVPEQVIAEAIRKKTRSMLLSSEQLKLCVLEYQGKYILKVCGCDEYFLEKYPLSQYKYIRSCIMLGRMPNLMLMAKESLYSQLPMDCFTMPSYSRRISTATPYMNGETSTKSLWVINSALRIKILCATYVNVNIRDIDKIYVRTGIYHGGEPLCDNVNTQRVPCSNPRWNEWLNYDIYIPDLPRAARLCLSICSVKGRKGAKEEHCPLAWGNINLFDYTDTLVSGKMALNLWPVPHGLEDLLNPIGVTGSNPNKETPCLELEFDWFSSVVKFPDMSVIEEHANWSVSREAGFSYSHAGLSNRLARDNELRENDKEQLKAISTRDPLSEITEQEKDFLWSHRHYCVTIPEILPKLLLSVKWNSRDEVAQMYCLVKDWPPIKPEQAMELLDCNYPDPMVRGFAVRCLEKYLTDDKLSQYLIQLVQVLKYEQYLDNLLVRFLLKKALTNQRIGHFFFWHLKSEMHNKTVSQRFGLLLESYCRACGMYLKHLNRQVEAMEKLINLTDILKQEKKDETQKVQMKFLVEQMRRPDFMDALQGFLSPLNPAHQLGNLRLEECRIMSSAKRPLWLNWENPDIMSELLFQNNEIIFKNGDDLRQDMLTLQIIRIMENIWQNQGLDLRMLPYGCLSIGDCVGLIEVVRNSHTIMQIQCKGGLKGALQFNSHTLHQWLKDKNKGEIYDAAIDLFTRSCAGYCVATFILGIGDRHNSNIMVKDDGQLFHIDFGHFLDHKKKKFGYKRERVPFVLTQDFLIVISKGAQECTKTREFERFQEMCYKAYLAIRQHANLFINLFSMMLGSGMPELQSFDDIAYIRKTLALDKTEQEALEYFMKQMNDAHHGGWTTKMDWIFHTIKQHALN
Sequence of p110α/p85 (P27986 whole entry partner): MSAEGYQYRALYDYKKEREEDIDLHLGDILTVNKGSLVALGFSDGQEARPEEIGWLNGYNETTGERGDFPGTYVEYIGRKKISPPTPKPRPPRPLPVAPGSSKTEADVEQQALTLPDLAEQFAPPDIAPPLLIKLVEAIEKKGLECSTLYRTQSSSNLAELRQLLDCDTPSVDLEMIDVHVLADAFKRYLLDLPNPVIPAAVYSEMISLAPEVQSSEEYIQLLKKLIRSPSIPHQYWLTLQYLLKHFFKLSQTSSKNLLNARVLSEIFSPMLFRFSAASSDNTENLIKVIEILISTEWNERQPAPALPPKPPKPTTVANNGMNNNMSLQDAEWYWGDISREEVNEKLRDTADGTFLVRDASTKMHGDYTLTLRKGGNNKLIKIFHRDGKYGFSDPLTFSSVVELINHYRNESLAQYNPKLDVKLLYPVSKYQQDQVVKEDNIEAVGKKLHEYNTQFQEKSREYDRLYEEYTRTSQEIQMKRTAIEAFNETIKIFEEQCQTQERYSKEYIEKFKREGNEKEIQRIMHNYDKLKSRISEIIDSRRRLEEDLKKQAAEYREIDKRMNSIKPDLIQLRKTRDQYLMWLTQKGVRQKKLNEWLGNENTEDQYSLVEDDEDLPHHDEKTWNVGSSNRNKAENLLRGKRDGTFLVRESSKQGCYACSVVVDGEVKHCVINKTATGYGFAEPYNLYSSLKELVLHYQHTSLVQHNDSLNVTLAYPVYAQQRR

Sequence of p110δ/p85 (O00329 whole entry, species assumed): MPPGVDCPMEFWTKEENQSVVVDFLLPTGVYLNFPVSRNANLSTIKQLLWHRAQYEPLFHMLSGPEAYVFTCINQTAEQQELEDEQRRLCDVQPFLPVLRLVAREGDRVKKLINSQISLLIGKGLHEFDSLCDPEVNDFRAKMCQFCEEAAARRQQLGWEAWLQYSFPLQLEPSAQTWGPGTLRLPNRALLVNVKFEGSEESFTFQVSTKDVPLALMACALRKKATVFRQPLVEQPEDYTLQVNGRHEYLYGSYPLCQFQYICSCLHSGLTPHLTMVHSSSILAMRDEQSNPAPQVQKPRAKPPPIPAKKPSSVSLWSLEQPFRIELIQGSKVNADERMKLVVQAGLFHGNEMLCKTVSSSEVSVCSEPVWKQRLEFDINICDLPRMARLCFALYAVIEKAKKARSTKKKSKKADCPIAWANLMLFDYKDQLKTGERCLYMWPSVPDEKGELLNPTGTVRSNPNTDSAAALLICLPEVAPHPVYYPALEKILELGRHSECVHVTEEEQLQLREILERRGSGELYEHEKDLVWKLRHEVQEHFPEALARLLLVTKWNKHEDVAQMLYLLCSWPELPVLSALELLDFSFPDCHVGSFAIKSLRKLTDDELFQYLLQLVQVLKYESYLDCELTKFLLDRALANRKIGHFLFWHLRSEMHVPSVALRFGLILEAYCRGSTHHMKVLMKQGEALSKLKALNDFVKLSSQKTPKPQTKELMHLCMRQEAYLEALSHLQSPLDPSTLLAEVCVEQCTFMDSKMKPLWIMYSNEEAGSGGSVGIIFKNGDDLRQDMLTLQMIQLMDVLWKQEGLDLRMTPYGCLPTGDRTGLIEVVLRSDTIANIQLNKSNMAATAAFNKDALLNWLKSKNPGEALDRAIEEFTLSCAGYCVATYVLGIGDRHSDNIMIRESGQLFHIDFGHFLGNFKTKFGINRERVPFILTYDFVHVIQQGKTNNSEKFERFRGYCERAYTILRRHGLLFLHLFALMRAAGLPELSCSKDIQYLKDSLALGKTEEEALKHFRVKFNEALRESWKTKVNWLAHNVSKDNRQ
Sequence of p110δ/p85 (P27986 whole entry partner, species assumed): as the sequence (P27986 whole entry partner) above
Sequence of p110β/p85 (P42338 whole entry, species assumed): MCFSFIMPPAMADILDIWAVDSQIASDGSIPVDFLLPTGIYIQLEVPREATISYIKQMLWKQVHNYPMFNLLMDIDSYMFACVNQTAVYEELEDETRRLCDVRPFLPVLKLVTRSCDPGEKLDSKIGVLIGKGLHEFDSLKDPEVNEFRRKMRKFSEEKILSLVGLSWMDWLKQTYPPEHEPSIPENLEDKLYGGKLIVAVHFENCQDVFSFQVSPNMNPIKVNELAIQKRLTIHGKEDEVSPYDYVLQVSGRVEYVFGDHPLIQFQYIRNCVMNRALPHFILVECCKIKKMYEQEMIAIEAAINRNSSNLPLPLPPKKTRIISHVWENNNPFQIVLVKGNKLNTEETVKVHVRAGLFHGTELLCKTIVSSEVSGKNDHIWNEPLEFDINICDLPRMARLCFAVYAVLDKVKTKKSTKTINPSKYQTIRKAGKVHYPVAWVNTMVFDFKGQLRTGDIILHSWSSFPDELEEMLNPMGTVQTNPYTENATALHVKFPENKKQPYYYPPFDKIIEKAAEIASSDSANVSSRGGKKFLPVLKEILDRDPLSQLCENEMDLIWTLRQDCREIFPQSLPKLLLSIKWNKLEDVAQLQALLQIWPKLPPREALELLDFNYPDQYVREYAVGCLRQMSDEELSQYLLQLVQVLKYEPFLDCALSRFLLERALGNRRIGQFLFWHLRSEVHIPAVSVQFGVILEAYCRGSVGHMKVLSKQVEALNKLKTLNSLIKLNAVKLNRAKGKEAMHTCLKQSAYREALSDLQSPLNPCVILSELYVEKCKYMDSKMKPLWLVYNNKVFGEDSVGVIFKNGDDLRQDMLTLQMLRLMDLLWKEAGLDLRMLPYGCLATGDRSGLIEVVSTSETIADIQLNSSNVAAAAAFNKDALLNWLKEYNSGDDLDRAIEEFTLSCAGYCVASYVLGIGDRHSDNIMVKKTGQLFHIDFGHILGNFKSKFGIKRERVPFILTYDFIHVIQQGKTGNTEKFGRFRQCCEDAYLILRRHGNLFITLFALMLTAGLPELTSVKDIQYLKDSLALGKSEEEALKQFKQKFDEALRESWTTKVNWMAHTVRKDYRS
Sequence of p110β/p85 (P27986 whole entry partner, species assumed): as the sequence (P27986 whole entry partner) above

Compound `FC(F)c1nc2ccccc2n1-c1nc(Nc2cccnc2)nc(N2CCOCC2)n1` [Example 1, 4-[2-(difluoromethyl)-1H-benzimidazol-1-yl]-6-(4-morpholinyl)-N-(3-pyridinyl)-1,3,5-triazin-2-amine] came in with a melting point of 228 to 230 °C. Further, the half-maximal inhibitory concentration (IC50) with NZB5 lay in the range of 100 to 1000 nM. Moreover, the IC50 in the data set on NZOV9 fell in the range of 100 to 1000 nM. Moreover, the IC50 at p110δ/p85 is less than 100 nM. Besides, the IC50 on p110β/p85 is less than 100 nM. Also, at p110α/p85, the IC50 was less than 100 nM.
Consider `COc1cccc2c1nc(C(F)F)n2-c1nc(Nc2cccnc2)nc(N2CCOCC2)n1` [Example 2, 4-[2-(difluoromethyl)-4-methoxy-1H-benzimidazol-1-yl]-6-(4-morpholinyl)-N-(3-pyridinyl)-1,3,5-triazin-2-amine], for which the melting point fell in the range of 221 to 223 °C. The half-inhibitory concentration (IC50) with NZB5 was less than 100 nM. Further, in the data set on NZOV9, the IC50 was less than 100 nM. Further, at p110δ/p85, the IC50 was less than 100 nM. Moreover, at p110β/p85, the IC50 is 100 to 1000 nM. For the same compound, the IC50 on p110α/p85 is less than 100 nM.
For the compound `CN(Cc1ccccc1)c1nc(N2CCOCC2)nc(-n2c(C(F)F)nc3ccccc32)n1` [Example 9, N-benzyl-4-[2-(difluoromethyl)-1H-benzimidazol-1-yl]-N-methyl-6-(4-morpholinyl)-1,3,5-triazin-2-amine], the melting point lay within 147 to 150 °C. Further, in the data set on NZOV9, the IC50 lay in the range of 100 to 1000 nM. Moreover, the half-inhibitory concentration (IC50) at p110δ/p85 was less than 100 nM. In addition, at p110β/p85, the IC50 was 100 to 1000 nM. Also, the half-inhibitory concentration (IC50) at p110α/p85 was 1000 to 10000 nM.
Compound `FC(F)c1nc2ccccc2n1-c1nc(NCc2ccncc2)nc(N2CCOCC2)n1` [Example 15, 4-[2-(difluoromethyl)-1H-benzimidazol-1-yl]-6-(4-morpholinyl)-N-(4-pyridinylmethyl)-1,3,5-triazin-2-amine] yielded a melting point of 188 to 190 °C. Also, the IC50 in the data set on NZB5 is 100 to 1000 nM. For the same compound, in the data set with NZOV9, the half-maximal inhibitory concentration (IC50) lay within 100 to 1000 nM. Besides, the IC50 on p110α/p85 lay in the range of 100 to 1000 nM.
`FC(F)c1nc2ccccc2n1-c1nc(Nc2ccccn2)nc(N2CCOCC2)n1` [Example 16, 4-[2-(difluoromethyl)-1H-benzimidazol-1-yl]-6-(4-morpholinyl)-N-(2-pyridinyl)-1,3,5-triazin-2-amine]: the melting point is 230 to 232 °C. The IC50 with NZB5 is 100 to 1000 nM. For the same compound, the IC50 in the data set on NZOV9 was in the range of 100 to 1000 nM. Moreover, the IC50 at p110δ/p85 was less than 100 nM. The IC50 on p110α/p85 is less than 100 nM.
For the compound `FC(F)c1nc2ccccc2n1-c1nc(Nc2cnc3ccccc3c2)nc(N2CCOCC2)n1` [Example 18, N-[4-[2-(difluoromethyl)-1H-benzimidazol-1-yl]-6-(4-morpholinyl)-1,3,5-triazin-2-yl]-3-quinolinamine], the melting point is 270 to 273 °C. Also, in the data set with NZB5, the IC50 lay within 100 to 1000 nM. In addition, the IC50 with NZOV9 was in the range of 100 to 1000 nM. The IC50 on p110δ/p85 was in the range of 100 to 1000 nM. The concentration for half-maximal inhibition (IC50) at p110α/p85 fell in the range of 100 to 1000 nM.
As for `FC(F)c1nc2ccccc2n1-c1nc(Nc2ncccn2)nc(N2CCOCC2)n1` [Example 19, 4-[2-(difluoromethyl)-1H-benzimidazol-1-yl]-6-(4-morpholinyl)-N-(2-pyrimidinyl)-1,3,5-triazin-2-amine], the melting point was 261 to 263 °C. The concentration for half-maximal inhibition (IC50) in the data set on NZB5 fell in the range of 100 to 1000 nM. Further, the IC50 in the data set with NZOV9 is 100 to 1000 nM. Besides, the concentration for half-maximal inhibition (IC50) on p110α/p85 lay in the range of 100 to 1000 nM.
The compound `FC(F)c1nc2ccccc2n1-c1nc(Nc2ccncn2)nc(N2CCOCC2)n1` [Example 20, 4-[2-(difluoromethyl)-1H-benzimidazol-1-yl]-6-(4-morpholinyl)-N-(4-pyrimidinyl)-1,3,5-triazin-2-amine] displayed a melting point of 233 to 235 °C. For the same compound, the half-maximal inhibitory concentration (IC50) in the data set on NZB5 fell in the range of 100 to 1000 nM. Besides, the concentration for half-maximal inhibition (IC50) in the data set on NZOV9 was in the range of 100 to 1000 nM. The half-maximal inhibitory concentration (IC50) at p110δ/p85 was less than 100 nM. The IC50 on p110α/p85 is less than 100 nM.
As to `FC(F)c1nc2ccccc2n1-c1nc(Nc2cncnc2)nc(N2CCOCC2)n1` [Example 21, 4-[2-(difluoromethyl)-1H-benzimidazol-1-yl]-6-(4-morpholinyl)-N-(5-pyrimidinyl)-1,3,5-triazin-2-amine], the melting point lay within 290 to 292 °C. The IC50 in the data set with NZB5 lay within 100 to 1000 nM. Besides, the IC50 in the data set with NZOV9 is 100 to 1000 nM. Also, the concentration for half-maximal inhibition (IC50) on p110δ/p85 is less than 100 nM. Moreover, at p110α/p85, the IC50 was less than 100 nM.
`FC(F)c1nc2ccccc2n1-c1nc(Nc2cnccn2)nc(N2CCOCC2)n1` [Example 22, 4-[2-(difluoromethyl)-1H-benzimidazol-1-yl]-6-(4-morpholinyl)-N-(2-pyrazinyl)-1,3,5-triazin-2-amine] yielded a melting point of 271 to 274 °C. Moreover, in the data set on NZB5, the IC50 is 100 to 1000 nM. Further, in the data set with NZOV9, the IC50 is 100 to 1000 nM. In addition, at p110δ/p85, the IC50 is less than 100 nM. For the same compound, the IC50 on p110α/p85 was less than 100 nM.
The compound `FC(F)c1nc2ccccc2n1-c1nc(Oc2cccnc2)nc(N2CCOCC2)n1` [Example 24, 2-(difluoromethyl)-1-[4-(4-morpholinyl)-6-(3-pyridinyloxy)-1,3,5-triazin-2-yl]-1H-benzimidazole] returned a melting point of 229 to 231 °C. Moreover, the 50% inhibitory concentration (IC50) in the data set with NZB5 was 1000 to 10000 nM. In addition, the IC50 with NZOV9 was in the range of 1000 to 10000 nM. Moreover, the IC50 at p110α/p85 lay within 100 to 1000 nM.
In the case of `FC(F)c1nc2ccccc2n1-c1nc(Nc2cncnc2)nc(N2CCOCC2)n1` [Example 35, 4-[2-(difluoromethyl)-1H-benzimidazol-1-yl]-6-(4-morpholinyl)-N-(5-pyrimidinyl)-1,3,5-triazin-2-amine], the IC50 at p110β/p85 lay within 100 to 1000 nM.
With `COc1ncc(Nc2nc(N3CCOCC3)nc(-n3c(C(F)F)nc4c(OC)cccc43)n2)cn1` [Example 40, 4-[2-(difluoromethyl)-4-methoxy-1H-benzimidazol-1-yl]-N-(2-methoxy-5-pyrimidinyl)-6-(4-morpholinyl)-1,3,5-triazin-2-amine], the IC50 was 100 to 1000 nM in the data set with NZB5; 100 to 1000 nM in the data set on NZOV9; less than 100 nM at p110δ/p85; 100 to 1000 nM at p110β/p85; less than 100 nM at p110α/p85.
As for `COc1cccc2c1nc(C(F)F)n2-c1nc(-c2cccnc2)cc(N2CCOCC2)n1` [Example 52, 2-(difluoromethyl)-4-methoxy-1-[4-(4-morpholinyl)-6-(3-pyridinyl)-2-pyrimidinyl]-1H-benzimidazole], the melting point lay in the range of 208 to 210 °C. Further, the concentration for half-maximal inhibition (IC50) at p110δ/p85 is less than 100 nM. Moreover, the IC50 at p110α/p85 is less than 100 nM.
With `FC(F)c1nc2ccccc2n1-c1nc(-c2cncnc2)cc(N2CCOCC2)n1` [Example 55, 2-[2-(difluoromethyl)-1H-benzimidazol-1-yl]-6-(4-morpholinyl)-4,5′-bipyrimidine], the melting point is 209 to 211 °C. In addition, the IC50 at p110δ/p85 is 100 to 1000 nM. Further, the IC50 at p110α/p85 lay in the range of 100 to 1000 nM.
Compound `COc1cccc2c1nc(C(F)F)n2-c1nc(-c2cncnc2)cc(N2CCOCC2)n1` [Example 56, 2-[2-(difluoromethyl)-4-methoxy-1H-benzimidazol-1-yl]-6-(4-morpholinyl)-4,5′-bipyrimidine] came in with a melting point of 222 to 224 °C. Moreover, the 50% inhibitory concentration (IC50) on p110δ/p85 fell in the range of 100 to 1000 nM. The concentration for half-maximal inhibition (IC50) on p110α/p85 is less than 100 nM.
`COc1ncc(-c2cc(N3CCOCC3)nc(-n3c(C(F)F)nc4c(OC)cccc43)n2)cn1` [Example 57, 2-[2-(difluoromethyl)-4-methoxy-1H-benzimidazol-1-yl]-6-(4-morpholinyl)-2′-methoxy-4,5′-bipyrimidine] had a melting point of 238 to 241 °C. Moreover, on p110δ/p85, the IC50 was 100 to 1000 nM. The 50% inhibitory concentration (IC50) on p110α/p85 is less than 100 nM.
Taken in the same sequence, the figures for `COc1cccc2c1nc(C(F)F)n2-c1nc(N2CCOCC2)c2ncn(-c3cncnc3)c2n1` [Example 60, 2-[2-(difluoromethyl)-4-methoxy-1H-benzimidazol-1-yl]-6-(4-morpholinyl)-9-(5-pyrimidinyl)-9H-purine] were 248 to 251 °C, less than 100 nM and less than 100 nM.
Taken in the same sequence, the figures for `COc1cccc2c1nc(C(F)F)n2-c1nc(N2CCOCC2)nc(-n2cccn2)n1` [Example 63, 2-(Difluoromethyl)-4-methoxy-1-[4-(4-morpholinyl)-6-(1H-pyrazol-1-yl)-1,3,5-triazin-2-yl]-1H-benzimidazole] were 274 to 277 °C, less than 100 nM and less than 100 nM.

Broadly, the melting point is the temperature of the solid-liquid transition. Usually IC50 stands for the point on the concentration scale where inhibition reaches its midpoint.
